We go through four compounds from PMC4311633, “Effects of RAMEA-complexed polyunsaturated fatty acids on the response of human dendritic cells to inflammatory signals” (Beilstein Journal of Organic Chemistry, 2014).

Data set [1] has as its system CD1a cell surface protein in moDC. Briefly: CD1a cell surface expression in moDC by flow cytometry. Format: cell-based, human. The following applies: 20 µM/mL, resting, LPS- or Poly(I:C)-activated moDC; for Expression of CD1a protein on the surface of moDC: RAMEA-complexed PUFA compared with DMSO/ethanol form. The method, then: (§1) Peripheral blood mononuclear cells (PBMC) were separated from buffy coats by Ficoll gradient centrifugation (Amersham Biosciences, Uppsala, Sweden). Monocytes were isolated by positive selection using magnetic cell separation with anti-CD14-conjugated microbeads (Miltenyi Biotech, Bergisch Gladbach, Germany). […] The purified cells were cultured at a density of 10^6 cells/mL in serum free AIMV medium supplemented with 80 ng/mL granulocyte-macrophage colony stimulating factor (GM-CSF) purchased from Gentaur and 50 ng/mL IL-4 from Peprotech.
(§2) On day 0 and day 2 of the in vitro moDC differentiation process the cultures were supplemented with GM-CSF and IL-4 and were treated with 20 µM/mL n−3 PUFAs. On day 5 the fully differentiated cells were activated by 500 ng/mL bacterial lipopolysaccharide (LPS) (Sigma Aldrich) or by 500 ng/mL Poly(I:C) (InvivoGen, San Diego, CA, USA) or were left untreated. The negative controls were treated by DMSO or by 20 µM/mL RAMEA. The positive controls were stimulated by LPS or Poly(I:C) in the absence of PUFAs.
Phenotyping of moDC was performed by flow cytometry using anti-CD83-PE and anti-CD1a-FITC specific antibodes from BioLegend at the protein level (San Diego, CA, USA). Fluorescence intensities were measured with FACSCalibur (BD Biosciences). Data analysis was performed with the FlowJo software (Tree Star, Ashland, OR, USA).
In general terms: A flow cytometer gives signals particle by particle.

Data set [2] deals with GPR120 receptor expression in moDC. Briefly: GPR120 expression in moDC by Q-PCR. Format: cell-based, human. Conditions: 20 µM/mL; LPS-activated moDC; Q-PCR normalized to cyclophilin. The procedure: as §1, §2
GPR120 expression levels were measured by real-time quantitative PCR (Q-PCR). […] Q-PCR was performed using the ABI StepOne Real Time PCR System (Applied Biosystems) and cycle threshold values were determined by using the StepOne v2.1 Software (Applied Biosystems).

Data set [3] can be described thus: Solubility in 20% randomly methylated CD solutions and complexation efficiency, ALA. The following applies: calculated from solubility data in 20% CD solution, 24 h, rt. The class given is physicochemical. The procedure: (§3) The complexation efficiency calculated from the solubility data characterize the affinity of the various methylated CDs toward the lipids studied (Table 1). The complex association constants were not calculated because the intrinsic solubility in water is so low that it cannot be determined with a precision sufficient for the calculations.
(§4) The solubility of fatty acids in CD solutions was determined by adding PUFAs to the aqueous solutions at 20% RAMEA, RAMEB or RAMEG, respectively, stirring for 24 h at rt and then analyzed the filtered saturated solutions by HPLC using Hypersil ODS column (4 × 125 mm, particle size 5 μm) with guard column, mobile phase: acetonitrile/water 75:25 with 0.15% concentrated phosphoric acid, 2.0 mL/min flow rate, at 40 °C and UV detection at 210 nm.

Data set [4] is described as follows: Solubility in 20% randomly methylated CD solutions and complexation efficiency, EPA. Format: physicochemical. Conditions: calculated from solubility data in 20% CD solution, 24 h, rt. The method, then:
as §3, §4

A short description of data set [5]: Solubility in 20% randomly methylated CD solutions and complexation efficiency, DHA. Conditions: calculated from solubility data in 20% CD solution, 24 h, rt. Format: physicochemical. The procedure: as §3, §4
Data set [6] can be described thus: Solubility in 20% randomly methylated CD solutions and complexation efficiency, cholesterol. The following applies: for Solubilization of cholesterol: aqueous solution of 20% CD vs distilled water; for Complexation efficiency for Cholesterol: calculated from solubility data in 20% CD solution, 24 h, rt. The class given is physicochemical.
A short description of data set [7]: Solubilization of n−3 PUFAs in aqueous methylated CD solutions. Conditions: aqueous solution of 20% CD vs distilled water. Format: physicochemical. The method, then:
Cyclodextrins (CDs) are efficient solubilizers of lipids. […] The solubilizing effect of RAMEA in the case of n−3 PUFAs seems to be high enough for using it as a solubilizer without the risk of interaction with cholesterol-rich lipid rafts in the cell membrane.
as §4

Regarding `CC/C=C\C/C=C\C/C=C\CCCCCCCC(=O)O` [ALA, α-linoleic acid], the “Expression of CD1a protein on the surface of moDC” value in data set [1] was “solubilization method did not influence the effects”.
For `CC/C=C\C/C=C\C/C=C\C/C=C\C/C=C\C/C=C\CCC(=O)O` [DHA, docosahexaenoic acid], the “Proportion of inflammatory CD1a+ cells” value in data set [1] (PUFA dissolved in DMSO/ethanol) was “more efficient in decreasing the proportion of inflammatory CD1a^+ cells, than ALA or EPA”. For the same compound, the “Expression of CD1a protein on the surface of moDC” value in data set [1] is listed as “solubilization method did not influence the effects”. Moreover, the GPR120 receptor expression entry in data set [2] was “induced preferentially by DHA”.
“randomly methylated α-cyclodextrin [RAMEA]”: in data set [3], the “Complexation efficiency for ALA” value is on record as 0.25. In data set [4], the “Complexation efficiency for EPA” value was 0.21. For the same compound, the “Complexation efficiency for DHA” value in data set [5] is on record as 0.10. In data set [6], the Solubilization of cholesterol result is on record as “Neither RAMEA nor RAMEG could solubilize cholesterol to a measurable extent” and the “Complexation efficiency for Cholesterol” value is reported as less than 0.001. In addition, the “Solubilization of n−3 PUFAs” value in data set [7] was “solubilized”.
For the compound “randomly methylated β-cyclodextrin [RAMEB]”, in data set [3], the “Complexation efficiency for ALA” value is 0.43. Also, in data set [4], the “Complexation efficiency for EPA” value is on record as 0.41. In addition, the “Complexation efficiency for DHA” value in data set [5] is 0.35. Moreover, in data set [6], the Solubilization of cholesterol entry was “cholesterol could be dissolved by RAMEB only” and the “Complexation efficiency for Cholesterol” value is 0.08. Further, in data set [7], the “Solubilization of n−3 PUFAs” value is listed as “solubilized”.
